Test results: US8349896B2, “Aspirin-triggered lipid mediators” (The Brigham and Womens's Hospital, Inc., priority 2000, dated 2013)
Where two headings read alike, the source gives them in different places. Each block holds one compound with its values, some of them ahead of it.

Assays:
[1] = system: human PMN; assay: LTB4-stimulated PMN transendothelial migration; format: cell-based; settings: for potency relative to the compounds derived from EPA: similar to results of FIGS. 9A (transmigration) and 9C (air pouch), no data shown; for rank order of potency, inhibition of PMN migration: tested in parallel for direct comparison; for IC50: human PMN, FIG. 9A
Experimental: Human PMNs were freshly isolated from venous blood of healthy volunteers (that declined taking medication for 2 wk before donation; Brigham and Women's Hospital protocol no. 88-02642) by Ficoll gradient and enumerated. Human umbilical vein or microvascular ECs (HUVECs or HMVECs, respectively) were cultured for transendothelial migration (Reference 10), HMVEC monolayers (one, two, or three passages) were seeded (−2×10^5 cells/cm^2) on polycarbonate permeable supports precoated with 0.1% gelatin for incubations with NSAIDs and PUFA.

[2] = system: PMN infiltration into murine dorsal air pouches; assay: TNF-α induced leukocyte/PMN infiltration into murine dorsal air pouch; format: in vivo, FVB mice; settings: 100 ng intravenously into tail; TNF-α 100 ng/pouch; lavage at 4 h
Experimental: Inflammatory exudates were initiated with intrapouch injection of TNF-α (R&D Systems) into 6 d dorsal air pouches with (Reference 16) 6-8-wk-old male FVB mice (fed standard rodent diet 5001 containing 0.26% n-3 fatty acids) followed by ASA (500 μg) at 3.5 h and 300 μg C20:5/pouch at 4 h. At 6 h, pouches were lavaged (3 ml saline), and exudate cells were enumerated and activated 94 μM A23187, 37° C., 20 min). Inhibition of TNF-α-stimulated (100 ng/pouch, FVB strain) PMN infiltration with intravenous tail injection of either 18 R-hydroxyeicosapentaenoic acid (HEPE), 5, 12, 18R-HEPE, or 15-epi-LXA, analogue was determined (Reference 16) with pouch lavages taken at 4 h.

[3] = target: T1, recombinant human LTB4 receptor (Homo sapiens, UniProt Q15722); assay: [3H]LTB4 competition binding, HEK-293 cells stably expressing receptor; settings: HEK293 cells
T1 construct: expressed in transfected cells
T1 sequence (Q15722 whole entry): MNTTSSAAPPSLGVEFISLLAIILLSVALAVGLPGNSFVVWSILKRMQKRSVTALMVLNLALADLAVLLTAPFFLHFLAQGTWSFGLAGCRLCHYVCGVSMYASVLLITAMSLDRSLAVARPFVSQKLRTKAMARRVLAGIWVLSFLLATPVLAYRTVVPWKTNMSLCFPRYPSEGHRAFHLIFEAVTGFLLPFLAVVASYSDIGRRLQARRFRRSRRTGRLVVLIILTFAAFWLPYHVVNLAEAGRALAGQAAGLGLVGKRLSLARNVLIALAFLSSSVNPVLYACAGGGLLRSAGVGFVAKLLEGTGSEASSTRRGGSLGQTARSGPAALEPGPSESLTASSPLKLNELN

[4] = target: T2, Recombinant Human COX-2 (Homo sapiens, UniProt P35354); assay: Conversion of PUFA to hydroxy compounds by recombinant COX-2 incubated with NSAID; format: biochemical; settings: for 11R-HEPE, conversion of n-3 C20:5 / 15R-HEPE, conversion of n-3 C20:5 / 18R-HEPE, conversion of n-3 C20:5: Table 2, mean amount +/− SEM
T2 construct: host or cells: Sf9 insect cells, baculovirus; microsomal fractions
T2 sequence (P35354 18-604): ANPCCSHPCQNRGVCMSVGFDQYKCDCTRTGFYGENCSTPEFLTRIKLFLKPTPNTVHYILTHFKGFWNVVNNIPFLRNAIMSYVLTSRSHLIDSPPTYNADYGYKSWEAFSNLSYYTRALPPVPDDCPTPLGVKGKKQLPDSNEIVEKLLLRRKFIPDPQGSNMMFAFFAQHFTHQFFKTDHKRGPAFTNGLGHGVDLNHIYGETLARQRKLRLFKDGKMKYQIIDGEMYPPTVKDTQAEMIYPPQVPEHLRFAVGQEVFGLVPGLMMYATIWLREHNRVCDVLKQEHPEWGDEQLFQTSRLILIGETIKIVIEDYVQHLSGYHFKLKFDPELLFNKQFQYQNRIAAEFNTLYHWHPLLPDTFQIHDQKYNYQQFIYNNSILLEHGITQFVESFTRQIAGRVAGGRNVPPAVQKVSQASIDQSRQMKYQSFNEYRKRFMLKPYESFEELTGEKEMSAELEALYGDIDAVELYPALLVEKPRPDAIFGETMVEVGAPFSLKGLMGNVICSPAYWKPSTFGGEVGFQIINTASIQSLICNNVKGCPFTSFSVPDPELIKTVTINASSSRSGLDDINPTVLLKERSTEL
Experimental: Human recombinant COX-2 (a gift from Dr. R. A. Copeland, DuPont Merck, Wilmington, Del.) was overexpressed in […] (American Type Culture Collection) with microsomal fractions (˜8 μl) suspended in Tris (100 mM, pH 8.0) as in Reference 21. George, H. J., D. E. Van Dyk, R. A. Straney, J. M. Trzaskos, and R. A. Copeland. 1996. Expression purification and characterization of recombinant human inducible prostaglandin G/H synthase from baculovirus-infected insect cells. Protein Expres. Purif. 7:19-26. NSAIDs were incubated (i.e., ASA ˜1 mM) at 37° C. for 30 min before addition of PUFA (20 μM), and conversions were also monitored using 1-^14C-labeled C20:4 (See FIGS. 2A and 2B) or C20:5 (NEN Life Science Products) (See FIGS. 2C and 2D).

[5] = PUFA 20 μM, ASA ~1 mM or NS398 100 uM, mean ± SEM
[6] = PUFA 20 μM, ASA ~1 mM, mean ± SEM
[7] = Table 1, PUFA 20 μM, ASA ~1 mM or NS398 100 uM, mean ± SEM

Compound: CC/C=C\C/C=C\C=C\C(O)C/C=C\C/C=C\C/C=C\CCC(=O)O (stereo not drawn) [13-hydroxy-DHA]
potency relative to the compounds derived from EPA [1]: potencies equivalent to those described above for the compounds derived from EPA

Compound: CCC(O)/C=C/C=C\C/C=C\C/C=C\C/C=C\C/C=C\CCC(=O)O (stereo not drawn) [20-hydroxy-DHA]
potency relative to the compounds derived from EPA [1]: potencies equivalent to those described above for the compounds derived from EPA

Compound: O=C(O)CCC[C@H](O)[C@H](O)/C=C/C=C/C=C\C=C\[C@H](O)COc1ccc(F)cc1 [15-epi-LXA4 stable analogue, 15(5)-16(para-fluoro)-phenoxy-LXA4]
rank order of potency, inhibition of PMN migration [1]: 15-epi-LXA4 stable analogue >5,12,18R-tri-HEPE >18R-HEPE
inhibition of PMN infiltration into murine dorsal air pouches (in words) [2]: potent inhibitor of PMN infiltration

IC50 [3]: 500 nM
Compound: CC/C=C\C/C=C\C[C@@H](O)/C=C/C=C/C=C\[C@@H](O)CCCC(=O)O [LTB5]

Compound: CC[C@@H](O)/C=C/C=C\C/C=C\C/C=C\C/C=C\CCCC(=O)O [Compound 18R-HEPE, 18R-hydroxyeicosapentaenoic acid]
IC50 ([1]; read-out: IC50, inhibition of LTB4-stimulated PMN transendothelial migration): > 1000 nM
rank order of potency, inhibition of PMN migration [1]: 15-epi-LXA4 stable analogue >5,12,18R-tri-HEPE >18R-HEPE
competition with 3H-LTB4 (in words) [3]: did not
inhibition of PMN infiltration into murine dorsal air pouches (in words) [2]: some activity in vivo

Compound: CC/C=C\CC(O)/C=C/C=C\C/C=C\C/C=C\C/C=C\CCC(=O)O (stereo not drawn) [17-hydroxy-DHA]
potency relative to the compounds derived from EPA [1]: potencies equivalent to those described above for the compounds derived from EPA

11R-HEPE, conversion of n-3 C20:5 [4]: 6.7 ± 3.0 ng
15R-HEPE, conversion of n-3 C20:5 [4]: 4.6 ± 1.2 ng
18R-HEPE, conversion of n-3 C20:5 [4]: 5.5 ± 2.4 ng
reduction of levels of 15R- and 18R-HEPE versus absence of inhibitors ([4]; recombinant COX-2 and C20:5, concentrations as high as 2 mM, n=3): three to eight times
Compound: CC(=O)Nc1ccc(O)cc1 [Acetaminophen]

Compound: CC(=O)Oc1ccccc1C(=O)O [ASA, aspirin]
increase in 18R-HEPE on ASA acetylation of COX-2 ([4]; C20:5): approximately twofold increase
reduction in 11R-HEPE on ASA acetylation of COX-2 ([4]; C20:5): > 85%
11R-HETE (ω-9) generated from C20:4 [4, 5]: 1.4 ± 1.6 ng/incubation
15R-HETE (ω-5) generated from C20:4 [4, 5]: 234.0 ± 112.5 ng/incubation
9-HODE (ω-9) generated from C18:2 [4, 6]: 25.2 ± 17.8 ng/incubation
13-HODE (ω-5) generated from C18:2 [4, 6]: 2.9 ± 0.6 ng/incubation
11R-HEPE (ω-9) generated from C20:5 [4, 7]: 5.4 ± 3.3 ng/incubation
15R-HEPE (ω-5) generated from C20:5 [4, 7]: 16.8 ± 5.8 ng/incubation
18R-HEPE (ω-2) generated from C20:5 [4, 7]: 16.2 ± 3.3 ng/incubation
11R-HEPE, conversion of n-3 C20:5 [4]: 5.5 ± 2.3 ng
15R-HEPE, conversion of n-3 C20:5 [4]: 8.0 ± 5.6 ng
18R-HEPE, conversion of n-3 C20:5 [4]: 12.2 ± 4.6 ng

Compound: 19-hydroxy-DHA
potency relative to the compounds derived from EPA [1]: potencies equivalent to those described above for the compounds derived from EPA

Compound: CC/C=C\C=C\C(O)C/C=C\C/C=C\C/C=C\C/C=C\CCC(=O)O (stereo not drawn) [16-hydroxy-DHA]
potency relative to the compounds derived from EPA [1]: potencies equivalent to those described above for the compounds derived from EPA

IC50 ([1]; read-out: apparent IC50, inhibition of LTB4-stimulated PMN transendothelial migration): 5 to 50 nM
IC50 [3]: 500 nM
Compound: CC[C@@H](O)/C=C/C=C\C[C@@H](O)/C=C/C=C/C=C\[C@@H](O)CCCC(=O)O [5,12,18R-triHEPE]
rank order of potency, inhibition of PMN migration [1]: 15-epi-LXA4 stable analogue >5,12,18R-tri-HEPE >18R-HEPE
inhibition of PMN infiltration into murine dorsal air pouches (in words) [2]: potent inhibitor of PMN infiltration

Compound: CC/C=C\C/C=C\CC(O)/C=C/C=C\C/C=C\C/C=C\CCC(=O)O (stereo not drawn) [14-hydroxy-DHA]
potency relative to the compounds derived from EPA [1]: potencies equivalent to those described above for the compounds derived from EPA
